This is an account of results in ChEMBL document CHEMBL1201862, “PubChem BioAssay data set” (2004).

Among the test systems are SK-MEL-2; HL-60; PC-3; OVCAR-5; SK-MEL-5; SF-539; HCT-116; CCRF-CEM; MOLT-4; UACC-62; EKVX; SNB-19; MDA-N; HOP-92; SN12C; MDA-MB-231; SK-MEL-28; K562; LOX IMVI.
Assay in all cases: inhibition of tumour cell growth, NCI panel, 48 h

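The compound was tested at five concentrations on cells cultured in 96-well plates, with a 48-hour exposure period. GI50 is the concentration that inhibits growth by half.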 Calls of active or inactive are those of the source. Rule as the data show it: active = GI50 up to about 1.1 µM and inactive = higher.

Consider `C=C1c2nc3ccccc3n2C=C(c2ccc(OC)cc2)N1c1ccc(OCCN2CCOCC2)cc1`, for which the GI50 with SK-MEL-2 was 18.5 µM (inactive); in the test with HL-60, 4.31 µM (inactive); with PC-3 it was 9.51 µM (inactive); in the test on OVCAR-5 it was > 100 µM (inactive); with SK-MEL-5 it was 8.45 µM (inactive); in the test with SF-539, > 100 µM (inactive). Besides, the GI50 is 21.9 µM (inactive) with HCT-116; 3.73 µM (inactive) in the test with CCRF-CEM; 3.75 µM (inactive) in the test on MOLT-4; 20.4 µM (inactive) in the test with UACC-62; > 100 µM (inactive) in the test with EKVX; > 100 µM (inactive) with SNB-19. In addition, the GI50 is > 75.2 µM (inactive) with MDA-N; > 40.9 µM (inactive) with HOP-92; > 61.8 µM (inactive) in the test on SN12C; > 86.1 µM (inactive) in the test on MDA-MB-231; 42.2 µM (inactive) with SK-MEL-28; 7.62 µM (inactive) with K562. The GI50 with LOX IMVI was 13.3 µM (inactive).

For `O=C(O/C=C\OC1CCCC1(c1ccccc1)c1ccccc1)c1ccccc1` (stereo not given), the GI50 is 3.31 µM (inactive) with SK-MEL-2; 1.84 µM (inactive) with HL-60; 3.34 µM (inactive) in the test on PC-3; 16.8 µM (inactive) with OVCAR-5; 10.8 µM (inactive) in the test on SK-MEL-5; 3.66 µM (inactive) in the test with SF-539. Besides, the GI50 in the test on HCT-116 is 2.51 µM (inactive); in the test with CCRF-CEM it was 2.04 µM (inactive); in the test with MOLT-4, 4.29 µM (inactive); with UACC-62 it was 6.28 µM (inactive); in the test with EKVX, 17.5 µM (inactive); with SNB-19 it was 14.8 µM (inactive). For the same molecule, the GI50 with MDA-N was 3.47 µM (inactive); in the test on HOP-92, 2.07 µM (inactive); with SN12C, 3.95 µM (inactive); in the test on MDA-MB-231, 2.51 µM (inactive); in the test with SK-MEL-28, 5.71 µM (inactive); in the test with K562 it was 4.19 µM (inactive). Besides, the GI50 in the test on LOX IMVI is 1.67 µM (inactive).

As to `CC(C)NC(=O)N(Nc1ccccc1)C(C)(C)C`, the GI50 in the test on SK-MEL-2 was > 100 µM (inactive); in the test with HL-60, 37.2 µM (inactive); in the test with PC-3, > 100 µM (inactive); in the test with OVCAR-5 it was > 100 µM (inactive); with SK-MEL-5 it was > 100 µM (inactive); in the test on SF-539 it was > 100 µM (inactive). Further, the GI50 in the test on HCT-116, with CCRF-CEM, in the test with MOLT-4, in the test with UACC-62, with EKVX and with SNB-19 was > 100 µM (inactive) throughout. Moreover, the GI50 in the test with MDA-N, with HOP-92, with SN12C, in the test with MDA-MB-231, in the test on SK-MEL-28 and with K562 was > 100 µM (inactive) in each case. In the test on LOX IMVI, the GI50 is > 100 µM (inactive).

`COc1cccc(C2c3cc4c(cc3OC(NNC(N)=O)C2C)OCO4)c1O` (stereo not given): the GI50 in the test on SK-MEL-2 was 0.703 µM (active); in the test on HL-60 it was 1.05 µM (active); in the test with PC-3 it was 1.15 µM (inactive); in the test with OVCAR-5, 6.12 µM (inactive); in the test with SK-MEL-5, 0.345 µM (active); in the test with SF-539, 0.766 µM (active). Also, the GI50 is 0.834 µM (active) in the test on HCT-116; 0.929 µM (active) in the test on CCRF-CEM; 1.42 µM (inactive) in the test on MOLT-4; 2.54 µM (inactive) with UACC-62; 8.26 µM (inactive) in the test with EKVX; 9.14 µM (inactive) with SNB-19. Moreover, the GI50 with MDA-N is 0.213 µM (active); with HOP-92 it was 0.269 µM (active); in the test on SN12C it was 2.65 µM (inactive); in the test with MDA-MB-231 it was 3.94 µM (inactive); in the test with SK-MEL-28 it was 1.99 µM (inactive); with K562, 0.516 µM (active). Besides, the GI50 with LOX IMVI was 0.933 µM (active).

As to `COc1ccc(O)c(/C=N/NC(=S)N2CCCCC2)c1`, the GI50 was 25.1 µM (inactive) in the test with SK-MEL-2; 0.131 µM (active) in the test on HL-60; 5 µM (inactive) in the test on PC-3; 5.9 µM (inactive) in the test with OVCAR-5; 2.02 µM (inactive) in the test with SK-MEL-5; 3.77 µM (inactive) in the test with SF-539. Further, the GI50 was 2.3 µM (inactive) in the test with HCT-116; 0.569 µM (active) with CCRF-CEM; 1.3 µM (inactive) in the test with MOLT-4; 2.54 µM (inactive) in the test with UACC-62; 4.38 µM (inactive) in the test on EKVX; 4.51 µM (inactive) in the test on SNB-19. Also, the GI50 is 7.8 µM (inactive) in the test with MDA-N; 5.18 µM (inactive) in the test with HOP-92; 4.92 µM (inactive) with SN12C; 9.23 µM (inactive) in the test on MDA-MB-231; 3.17 µM (inactive) with SK-MEL-28; 3.05 µM (inactive) in the test on K562. Also, the GI50 in the test with LOX IMVI was 0.767 µM (active).

Take `CN(CC(N)=O)C(=O)N(CCCl)N=O` [SARCNU]: the GI50 with SK-MEL-2 was > 100 µM (inactive); in the test with HL-60, > 100 µM (inactive); in the test with PC-3 it was > 100 µM (inactive); in the test on OVCAR-5, > 100 µM (inactive); with SK-MEL-5 it was > 100 µM (inactive); in the test on SF-539 it was 38.3 µM (inactive). The GI50 in the test with HCT-116 was > 100 µM (inactive); in the test with CCRF-CEM, > 81.8 µM (inactive); in the test with MOLT-4 it was > 100 µM (inactive); with UACC-62 it was > 56.4 µM (inactive); in the test on EKVX, > 100 µM (inactive); in the test with SNB-19, > 83.9 µM (inactive). The GI50 in the test on MDA-N is > 100 µM (inactive); in the test on HOP-92, > 77.6 µM (inactive); in the test on SN12C, > 100 µM (inactive); in the test on MDA-MB-231, > 100 µM (inactive); in the test on SK-MEL-28 it was > 100 µM (inactive); with K562, > 100 µM (inactive). In the test on LOX IMVI, the GI50 is > 100 µM (inactive).

`C[C@H](NC(=O)C(Cc1ccccc1)(Cc1ccc(O)cn1)NC(=O)c1ccccc1)c1ccccc1` (stereo not given in full): the GI50 in the test on SK-MEL-2 is 14.2 µM (inactive); in the test on HL-60, 25.1 µM (inactive); with PC-3, 14.2 µM (inactive); with OVCAR-5 it was 21.9 µM (inactive); in the test with SK-MEL-5, 19.4 µM (inactive); in the test on SF-539 it was 19.2 µM (inactive). The GI50 with HCT-116 was 15.3 µM (inactive); in the test on CCRF-CEM, 30.5 µM (inactive); in the test on MOLT-4 it was 16.9 µM (inactive); in the test with UACC-62 it was 13.2 µM (inactive); with EKVX, 14.7 µM (inactive); in the test with SNB-19, 18.8 µM (inactive). Besides, the GI50 in the test on MDA-N was 15.5 µM (inactive); in the test with HOP-92, 21.3 µM (inactive); with SN12C it was 16.9 µM (inactive); in the test on MDA-MB-231, 15.6 µM (inactive); with SK-MEL-28, 18.5 µM (inactive); in the test with K562, 34 µM (inactive). The GI50 in the test with LOX IMVI is 14.8 µM (inactive).

Consider `CC12NC(=C(C#N)C#N)C(C#N)=C3NC(N)=C(C#N)C(=C31)Oc1ccccc12` (stereo not given), for which the GI50 is 6.7 µM (inactive) with SK-MEL-2; 5.74 µM (inactive) in the test with HL-60; 30.1 µM (inactive) in the test with PC-3; 47.8 µM (inactive) in the test with OVCAR-5; 5.05 µM (inactive) with SK-MEL-5; 4.32 µM (inactive) with SF-539. The GI50 in the test on HCT-116 is 4.53 µM (inactive); in the test with CCRF-CEM, > 29 µM (inactive); in the test with MOLT-4, 15.2 µM (inactive); in the test with UACC-62 it was 15 µM (inactive); with EKVX, > 66.5 µM (inactive); with SNB-19 it was > 40.7 µM (inactive). Besides, the GI50 in the test on MDA-N was 14.6 µM (inactive); in the test with HOP-92 it was > 21.5 µM (inactive); in the test with SN12C, > 30.7 µM (inactive); in the test with MDA-MB-231, > 30.1 µM (inactive); with SK-MEL-28, > 66.7 µM (inactive); in the test with K562, > 43.2 µM (inactive). In the test on LOX IMVI, the GI50 was 5.83 µM (inactive).

Turning to `CC(NC1=NCCO1)c1ccco1` (stereo not given), the GI50 with SK-MEL-2 is 60.4 µM (inactive); in the test on HL-60, > 100 µM (inactive); in the test on PC-3, > 100 µM (inactive); in the test on OVCAR-5, > 100 µM (inactive); with SK-MEL-5, 86.9 µM (inactive); with SF-539, > 100 µM (inactive). In addition, the GI50 in the test on HCT-116, with CCRF-CEM, in the test on MOLT-4, in the test on UACC-62, with EKVX and with SNB-19 was > 100 µM (inactive) in each case. Also, the GI50 in the test on MDA-N was 95.9 µM (inactive); with HOP-92 it was > 100 µM (inactive); in the test with SN12C, > 100 µM (inactive); with MDA-MB-231, > 100 µM (inactive); in the test on SK-MEL-28, > 100 µM (inactive); in the test on K562, > 100 µM (inactive). Also, the GI50 in the test with LOX IMVI was > 100 µM (inactive).

As for `O=C1c2cc(O)c(O)cc2O[C@H](c2ccc(O)c(O)c2)[C@H]1O`, the GI50 in the test with SK-MEL-2, in the test on HL-60, in the test on PC-3, in the test with OVCAR-5, with SK-MEL-5 and in the test with SF-539 was > 100 µM (inactive) in each case. For the same molecule, the GI50 is > 100 µM (inactive) in the test on HCT-116; 68.4 µM (inactive) in the test with CCRF-CEM; > 100 µM (inactive) in the test on MOLT-4; > 100 µM (inactive) in the test on UACC-62; > 100 µM (inactive) with EKVX; > 100 µM (inactive) with SNB-19. The GI50 in the test on MDA-N, with HOP-92, in the test with SN12C, with MDA-MB-231, in the test on SK-MEL-28 and with K562 was > 100 µM (inactive) throughout. In the test with LOX IMVI, the GI50 was > 100 µM (inactive).
